Reference: patent publication US20160143884A1, “USE OF TETRAHYDROINDAZOLYLBENZAMIDE AND TETRAHYDROINDOLYLBENZAMIDE DERIVATIVES FOR THE TREATMENT OF HUMAN IMMUNODEFICIENCY VIRUS (HIV) AND ACQUIRED IMMUNE DEFICIENCY SYNDROME (AIDS)” (Esanex, Inc., priority 2014, published 2016)

Experiments:
[1] = MTS staining for PBMC viability to measure cytotoxicity; assay type: cell-based, human; conditions: human, PBMCs
Source text: (§1) Pooling (mixing) of mononuclear cells from more than one donor is used to minimize the variability observed between individual donors, which results from quantitative and qualitative differences in HIV infection and overall response to the PHA and IL-2 of primary lymphocyte populations. Each plate contains virus/cell control wells (cells plus virus), experimental wells (drug plus cells plus virus) and compound control wells (drug plus media without cells, necessary for MTS monitoring of cytotoxicity). […] Therefore, infected wells are used in the assessment of both antiviral activity and cytotoxicity. […] The PBMC cultures are maintained for seven days following infection at 37° C., 5% CO2. After this period, cell-free supernatant samples are collected for analysis of reverse transcriptase activity and/or p24 antigen content. Following removal of supernatant samples, compound cytotoxicity is measured by addition of MTS to the plates for determination of cell viability. Wells are also examined microscopically and any abnormalities are noted. MTS Staining for PBMC Viability to Measure Cytotoxicity Protocol: At assay termination, assay plates are stained with the soluble tetrazolium-based dye MTS (CellTiter 96 Reagent, Promega) to determine cell viability and quantify compound toxicity. The mitochondrial enzymes of metabolically active cells metabolize MTS to yield a soluble formazan product. This allows the rapid quantitative analysis of cell viability and compound cytotoxicity. […] At termination of the assay, 20 uL of MTS reagent is added per well. The microtiter plates are then incubated 4-6 hrs at 37° C. The incubation intervals were chosen based on empirically determined times for optimal dye reduction. Adhesive plate sealers are used in place of the lids, the sealed plate is inverted several times to mix the soluble formazan product and the plate is read spectrophotometrically at 490/650 nm with a Molecular Devices Vmax or SpectraMaxPlus plate reader.

[2] = test system: PBMCs; assay: as above; assay type: cell-based, human
Source text: as §1

[3] = Cell viability (CellTiter 96 AQueous One) in HepG2 2.2.15; assay type: cell-based; conditions: human, HepG2-2.2.15 cells, read-out: Cytotoxicity TC50
Description: The anti-HBV assay employed real-time qPCR (TaqMan) to directly measure extracellular HBV DNA copy number. HepG2-2.2.15 cells were plated in 96-well microtiter plates. Only the interior wells were utilized to reduce “edge effects” observed during cell culture; the exterior wells were filled with complete medium to help minimize sample evaporation. After 16-24 hours the confluent monolayer of HepG2-2.2.15 cells was washed and the medium replaced with complete medium containing various concentrations of a test compound in triplicate. 3TC was used as positive control, while media alone was added to cells as negative control (virus control, VC). Three days later the culture medium was replaced with fresh medium containing the appropriately diluted drug. Six days following the initial administration of the test compound, the cell culture supernatant collected, treated with pronase and then used in a real-time quantitative TaqMan qPCR assay. The PCR-amplified HBV DNA was detected in real-time by monitoring increases in fluorescence signals that result from the exonucleolytic degradation of a quenched fluorescent probe molecule that hybridizes to the amplified HBV DNA. […] Antiviral activity was calculated from the reduction in HBV DNA levels (IC50). […] The therapeutic index (TI) was calculated as TC50/IC50.

[4] = test system: SIVmac251 virus; assay: SIV inhibition in NHP PBMC, p27 antigen capture assay; assay type: cell-based; conditions: 0.0005 to 50 μM
Description: Non-human primate (NHP) cells were activated in IL-2 growth medium (GM) containing PHA-P at a concentration of 10 μg/ml for 24 hrs. The next day cells were washed and re-suspended in fresh IL-2 GM. Compound 9 was serially diluted at concentrations ranging from 0.0005 to 50 μM in a 96 well u-bottom plate containing IL-2 GM. Activated cells were then added to the wells of the plate. SIVmac251 virus, diluted 1:25 in IL-2 GM, was subsequently added to the appropriate wells containing the compounds of interest and the cells except for controls. This virus represents the same virus preparation utilized for infection of the animals. The plate was then incubated overnight and, after extensive washing the next day, the plate was then placed back in the incubator at 37° C., 5% CO2.
On day 4-5, of the assay, supernatants were harvested and a SIV p27 antigen capture assay was used to detect SIV p27 in the supernatant. […] The percentage of inhibition in each experiment is reported in FIGS. 3b and 3c for test 1 and 2, respectively.

[5] = test system: JLAT clones (A2; 9.2); assay: HIV-1 reactivation and inhibition of reactivation in JLAT clones (GFP, flow cytometry); assay type: cell-based, human
Description: Two JLAT clones (A2; 9.2) were incubated for 24 hours with tumor necrosis factor alpha (TNFα), phorbol myristate 13-acetate (PMA), Compound 9 (9, various doses), and all combinations of these three compounds. JLAT cells make GFP when HIV is reactivated from latency.
J-Lat cells (JLAT 9.2, 5×10^5/mL) were cultured in Gibco RPMI-1640 media, supplemented with 10% (vol/vol) FCS and 5% (vol/vol) penicillin streptomycin at 37° C., 5% CO2 under sterile conditions. For HIV-1 reactivation experiments, 10^6 cells/mL were mixed with TPA (10 nM final, unless otherwise indicated) or TNFα (5 ng/mL final) and immediately 150 μL of cell mix was dispensed into 96-well plates. Compound 9 was added to the 96-well plates in serial dilutions. Cells were incubated for 24 h before analysis by flow cytometry.
JLAT (A2) cells were incubated with the following treatments: media (negative control), DMSO (SNX control), 1 ng/mL TNFα, 2 μM PMA, or these agonists+1, 0.1, 0.01, or 0.001 Compound 9 (left to right in the attached figure). 20 h post incubation, the cells were washed, fixed, and run on a flow cytometer. Media, DMSO, TNFα, and PMA were each run in quadruplicate; all other reactions were run in singlet. >10,000 events (cells) were counted for each treatment. Data are expressed as % GFP+cells (negative cells set by gating on media alone control).

[6] = test system: 2LTR non-integrated circular form of the HIV genome; assay: HIV integration in 2LTR assay (real-time PCR); assay type: cell-based, HIV-1
[7] = test system: Rev-dependent VLP production; assay: Virus like particles (VLP) production in 293T cells, Gag(p24) ELISA; assay type: cell-based; conditions: 293T cells, 1, 0.1 and 0.01
Source text: 293T Cells were transfected with a gag-pol-RRE construct. When Rev is present and/or functioning, Gag is produced, forms virus like particles (VLP), and VLP are secreted into the culture supernatant. VLP in the media are quantified using a quantitative Gag(p24) ELISA.

[8] = test system: single cycle HIV in SupT1 cells
Description: HIV-integration was evaluated in a cell based assay with ALU-PCR read out. Using single cycle virus (Env-deficient, containing Luc, pseudotyped with VSV-g), SupT1 cells were infected for 36 hours. Cells were treated with DMSO, Raltegravir (integrase inhibitor), 500 nM Compound 9, or Nelfinavir (protease inhibitor). It was expected that Raltegravir should affect both Luc and ALU-PCR data and Nelfinavir should not (downstream of both). Cells were split in half-one part for Luc-assays, and one part for ALU-PCR.

CC1(C)CC(=O)c2c(C(F)(F)F)nn(-c3ccc(C(N)=O)c(N[C@H]4CC[C@H](O)CC4)c3)c2C1 [Compound 9, 4-(6,6-Dimethyl-4-oxo-3-trifluoromethyl-4,5,6,7-tetrahydro-indazol-1-yl)-2-(trans-4-hydroxy-cyclohexylamino)-benzamide]
CC50 at 7 days [1]: 30 nM | TC 90% (90% cytotoxicity) [2]: >2000 nM | TC 95% (95% cytotoxicity) [2]: >2000 nM | CC50 at 6 days [3]: 73 nM | Amount of p27 in the supernatant of the cultures [4]: dose-dependent reduction | Increase in GFP positive cells (HIV reactivation) ([5]; JLAT (A2) model): about 2 fold | Inhibition of TNFα or PMA (phorbol ester) induced HIV-1 reactivation ([5]; JLAT A2 and JLAT 9.2 cells): does not inhibit | Expression level of 2LTR ([6]; 10 nM, both time points): expression levels similar to HIV Only | Expression level of 2LTR ([6]; 100 nM): highest expression levels of 2LTR over all other samples | Expression level of 2LTR ([6]; 1 μM): highest expression levels of 2LTR over all other samples | Inhibition of Rev-dependent VLP production [7]: does not appear to robustly inhibit | Integration of HIV-1 viral DNA into host cell [8]: inhibit | Reduction of single cycle HIV ([8]; 500 nM, SupT1 cells infected 36 hours): at least 90%
